Data from patent US20080200403A1, “9A-Carbamoyl and Thiocarbamoyl Azalides with Anti-Inflammatory Activity” (GLAXOSMITHKLINE, priority 2005, published 2008).
Like-named read-outs stand apart in the source and are kept apart here.

Assays:
Type in all cases: cell-based
IL-1α = test: Inhibition of IL-1 production by stimulated human peripheral blood leukocytes in vitro; conditions: PBL; for inhibition at 10 µM / inhibition at 50 µM: Homo sapiens, Leukocyte, read-out: Percentage of inhibition of IL-1α production
IL-8 = test: Inhibition of IL-8 production by stimulated human peripheral blood leukocytes in vitro; conditions: PBL; for inhibition at 10 µM / inhibition at 50 µM: Homo sapiens, Leukocyte, read-out: Percentage of inhibition of IL-8 production
Method: (§1) Test substances used in in vitro experiments were dissolved in dimethyl sulfoxide (DMSO) (Kemika, Croatia) at concentrations of 50 mM and 10 mM, and were further diluted to final concentrations of 50 μM and 10 μM in 1 mL Dulbecco's modified Eagle medium (DMEM) supplemented with 1% heat inactivated fetal bovine serum (FBS), 1% L-glutamine, 50 U/ml penicillin, 50 μg/ml streptomycin and 2.5 μg/mL Fungizone (amphotericin B). Media and all media supplements were purchased from Gibco, Australia, except the FBS was purchased from Sigma, USA.
(§2) Peripheral blood leukocytes (PBL) were obtained from venous blood of healthy volunteers by sedimentation on 2% dextran T-500 (Amersham Biosciences, USA) and subsequent centrifugations of leukocyte rich plasma.
(§3) Peripheral blood leukocytes (PBL), isolated as described above, were seeded in a 48-well plate at a concentration of 3 to 5×10^6 cell per well in culture medium consisting of RPMI 1640 medium (Institute of Immunology, Croatia) supplemented with 10% heat-inactivated fetal calf serum (FCS, Biowhittaker, USA), 100 U/ml penicillin (Gibco, Australia), 100 μg/ml streptomycin (Gibco, Australia) and 2 mM L-glutamine (Gibco, Australia), and preincubated with the test compounds for 2 h at 37° C., in an atmosphere of 5% CO2, and 90% humidity. Then, stimuli (Sigma, USA) were added to a final concentration of 2 μg/mL lipopolysaccharide (LPS), 1 μg/mL phorbol 12-myristate 13-acetate (PMA) or 120 μg/mL zymosan. Samples were incubated overnight under conditions described above. At the end of incubation, the supernatants were transferred to eppendorf tubes and centrifuged for 10 min at 1500×g. Concentrations of human TNF-α, IL-1β, IL-6 and IL-8 were determined in cell supernatants by sandwich ELISA, using capture and detection antibodies (R&D Systems, Minneapolis, Minn.) according to the manufacturer's recommendations.
(§4) Inhibition (as percentage) was calculated using the following formula: % inhibition=(1−concentration of cytokines in sample/concentration of cytokines in positive control)×100. The positive control refers to stimulated samples, not treated with substances.

human granulocytes = test: Oxidative burst inhibition assay on granulocytes (luminol); conditions: for % inhibition of Oxidative burst PMA: PMA stimulated granulocytes; for % inhibition of Oxidative burst Zymosan: Zymosan stimulated granulocytes
Method: Granulocytes were obtained from heparinized whole blood using density gradient centrifugation. Erythrocytes were sedimented on 3% dextran T-500 (Amersham Pharmacia Biotech AB, Uppsala, Sweden). Leukocytes were centrifuged on Ficoll (Amersham Pharmacia Biotech AB, Uppsala, Sweden) for 35 min at 600 g at 20° C. The pellet of granulocytes was cleared from remaining erythrocytes by a brief hypotonic lysis.
The effect of compounds on oxidative burst was investigated in vitro with oxidative burst assay in human granulocytes, isolated as described above. Assay was done in 96 well plate. Blood was obtained from healthy volunteers (Transfusion Center, Croatia) and human granulocytes were isolated by dextran sedimentation and ficoll extraction method, as described above. In each well 50000 isolated granulocytes were suspended in 100 μL of DMEM. Final concentrations of the tested compounds were 50 and 12.5 μM. Than, 50 μL of luminol (c=0.25 mg/mL) was added. Luminol as a detector of oxidative burst react with superoxide and light is produced as one of the reaction products. Subsequently, 50 μL of stimuli, phorbol-12-myristate acetate (PMA) (c=33 ng/mL) or Zymosan (c=120 μg/mL), were added.

IL-6 = test: Inhibition of IL-6 production by stimulated human peripheral blood leukocytes in vitro; conditions: PBL; for inhibition at 10 µM / inhibition at 50 µM: Homo sapiens, Leukocyte, read-out: Percentage of inhibition of IL-6 production
Method: as §1, §2, §3, §4

[1] = test system: human peripheral blood mononuclear cells (PBMC); test: Human T-cell proliferation in vitro (3H-thymidine incorporation); conditions: for inhibition at 10 µM / inhibition at 50 µM: Homo sapiens, PBMC, read-out: Percentage of inhibition of proliferation of stimulated PBMC
Method: Influence of substances at two different concentrations (50 μM and 10 μM) on cell proliferation of human peripheral blood mononuclear cells (PBMC) was assessed.
Heparinized peripheral blood was obtained from healthy donors, and PBMC were isolated by Histopaque 1077 (Sigma, USA) density centrifugation at 400×g for 30 minutes. 5×10^4 cells/well were cultured for 3 days in the RPMI medium as described above, in the presence (positive control) or absence (negative control) of stimulators [PHA (2.5 μg/mL) (Sigma, USA), or both PMA (10 ng/mL) (Sigma, USA) and ionomycin (500 ng/mL) (Calbiochem, USA)], and in the presence of the test compounds, at 37° C. in an atmosphere of 5% CO2 and 90% humidity. The cells were pulsed with 1 μCi of ^3H-thymidine (Amersham, USA) per well during the last 18 h of the culture, and were harvested on the 96-well filter (Packard Bioscience, USA) using a multiple cell harvester (Packard, USA). The incorporation of ^3H-thymidine in activated cells were measured using TopCount NXT (Packard, USA).
Inhibition (as percentage) was calculated using the following formula: % inhibition=(1−(^3H)thymidine incorporation expressed in counts per minute (cpm) in sample/(^3H)thymidine incorporation expressed in cpm in positive control)×100
where positive control refers to stimulated samples, not treated with substances.

TNF-α = test: Inhibition of TNF-α production by stimulated human peripheral blood leukocytes in vitro; conditions: PBL; for inhibition at 10 µM / inhibition at 50 µM: Homo sapiens, Leukocyte, read-out: Percentage of inhibition of TNF-α production
Method: as §1, §2, §3, §4

[2] = zymosan stimulated, compound 10 μM
[3] = zymosan stimulated, compound 50 μM
[4] = PMA + ionomycin stimulated, compound 10 μM
[5] = PMA + ionomycin stimulated, compound 50 μM

CCC1OC(=O)C(C)C(OC2CC(C)(OC)C(O)C(C)O2)C(C)C(OC2OC(C)CC(N(C)C)C2O)C(C)(O)CC(C)CN(C(=S)Nc2ccc(Cl)cc2)C(C)C(O)C1(C)O (centres unmarked) [Compound 2]
Percentage of inhibition of IL-1α production (IL-1α; LPS stimulated, compound 10 μM): 77% | Percentage of inhibition of IL-1α production (IL-1α; LPS stimulated, compound 50 μM): 98% | Percentage of inhibition of IL-1α production (IL-1α; PMA stimulated, compound 10 μM): 18% | Percentage of inhibition of IL-1α production (IL-1α; PMA stimulated, compound 50 μM): 97% | Percentage of inhibition of IL-1α production (IL-1α; [2]): 92% | Percentage of inhibition of IL-1α production (IL-1α; [3]): 98% | Percentage of inhibition of IL-8 production (IL-8; LPS stimulated, compound 10 μM): 79% | Percentage of inhibition of IL-8 production (IL-8; LPS stimulated, compound 50 μM): 88% | Percentage of inhibition of IL-8 production (IL-8; PMA stimulated, compound 10 μM): 27% | Percentage of inhibition of IL-8 production (IL-8; PMA stimulated, compound 50 μM): 58% | Percentage of inhibition of IL-8 production (IL-8; [2]): 61% | Percentage of inhibition of IL-8 production (IL-8; [3]): 51% | % inhibition of Oxidative burst PMA (human granulocytes; compound 12.5 μM): 19% | % inhibition of Oxidative burst PMA (human granulocytes; compound 50 μM): 82% | % inhibition of Oxidative burst Zymosan (human granulocytes; compound 12.5 μM): 24% | % inhibition of Oxidative burst Zymosan (human granulocytes; compound 50 μM): 98% | Percentage of inhibition of IL-6 production (IL-6; LPS stimulated, compound 10 μM): 75% | Percentage of inhibition of IL-6 production (IL-6; LPS stimulated, compound 50 μM): 100% | Percentage of inhibition of IL-6 production (IL-6; PMA stimulated, compound 10 μM): 49% | Percentage of inhibition of IL-6 production (IL-6; PMA stimulated, compound 50 μM): 100% | Percentage of inhibition of IL-6 production (IL-6; [2]): 90% | Percentage of inhibition of IL-6 production (IL-6; [3]): 100% | Percentage of inhibition of proliferation of stimulated PBMC ([1]; PHA stimulated, compound 10 μM): 6% | Percentage of inhibition of proliferation of stimulated PBMC ([1]; PHA stimulated, compound 50 μM): 97% | Percentage of inhibition of proliferation of stimulated PBMC [1, 4]: 35% | Percentage of inhibition of proliferation of stimulated PBMC [1, 5]: 99% | Percentage of inhibition of TNF-α production (TNF-α; LPS stimulated, compound 10 μM): 37% | Percentage of inhibition of TNF-α production (TNF-α; LPS stimulated, compound 50 μM): 100% | Percentage of inhibition of TNF-α production (TNF-α; PMA stimulated, compound 10 μM): 60% | Percentage of inhibition of TNF-α production (TNF-α; PMA stimulated, compound 50 μM): 99% | Percentage of inhibition of TNF-α production (TNF-α; [2]): 78% | Percentage of inhibition of TNF-α production (TNF-α; [3]): 98%

CC[C@H]1OC(=O)[C@H](C)[C@@H](O)[C@H](C)[C@@H](O[C@@H]2O[C@H](C)C[C@H](N(C)C)[C@H]2O)[C@](C)(O)C[C@@H](C)CN(C(=O)Nc2cccc(C(F)(F)F)c2)[C@H](C)[C@@H](O)[C@]1(C)O [Compound 13]
inhibition at 10 µM (IL-1α; LPS stimulated, compound 10 μM): 0% | inhibition at 50 µM (IL-1α; LPS stimulated, compound 50 μM): 52% | inhibition at 10 µM (IL-1α; PMA stimulated, compound 10 μM): 0% | inhibition at 50 µM (IL-1α; PMA stimulated, compound 50 μM): 32% | inhibition at 10 µM (IL-1α; [2]): 34% | inhibition at 50 µM (IL-1α; [3]): 89% | inhibition at 10 µM (IL-8; LPS stimulated, compound 10 μM): 0% | inhibition at 50 µM (IL-8; LPS stimulated, compound 50 μM): 0% | inhibition at 10 µM (IL-8; PMA stimulated, compound 10 μM): 0% | inhibition at 50 µM (IL-8; PMA stimulated, compound 50 μM): 25% | inhibition at 10 µM (IL-8; [2]): 62% | inhibition at 50 µM (IL-8; [3]): 0% | inhibition at 10 µM (IL-6; LPS stimulated, compound 10 μM): 0% | inhibition at 50 µM (IL-6; LPS stimulated, compound 50 μM): 0% | inhibition at 10 µM (IL-6; PMA stimulated, compound 10 μM): 84% | inhibition at 50 µM (IL-6; PMA stimulated, compound 50 μM): 100% | inhibition at 10 µM (IL-6; [2]): 52% | inhibition at 50 µM (IL-6; [3]): 94% | inhibition at 10 µM ([1]; PHA stimulated, compound 10 μM): 11% | inhibition at 50 µM ([1]; PHA stimulated, compound 50 μM): 42% | inhibition at 10 µM [1, 4]: 21% | inhibition at 50 µM [1, 5]: 43% | inhibition at 10 µM (TNF-α; LPS stimulated, compound 10 μM): 0% | inhibition at 50 µM (TNF-α; LPS stimulated, compound 50 μM): 0% | inhibition at 10 µM (TNF-α; PMA stimulated, compound 10 μM): 0% | inhibition at 50 µM (TNF-α; PMA stimulated, compound 50 μM): 0% | inhibition at 10 µM (TNF-α; [2]): 0% | inhibition at 50 µM (TNF-α; [3]): 52%

CC[C@H]1OC(=O)[C@H](C)[C@@H](O[C@H]2C[C@@](C)(OC)[C@@H](O)[C@H](C)O2)[C@H](C)[C@@H](O[C@@H]2O[C@H](C)C[C@H](N(C)C)[C@H]2O)[C@](C)(O)C[C@@H](C)CN(C(=S)Nc2cccc(Br)c2)[C@H](C)[C@@H](O)[C@]1(C)O [Compound 6]
inhibition at 10 µM (IL-1α; LPS stimulated, compound 10 μM): 64% | inhibition at 50 µM (IL-1α; LPS stimulated, compound 50 μM): 98% | inhibition at 10 µM (IL-1α; PMA stimulated, compound 10 μM): 79% | inhibition at 50 µM (IL-1α; PMA stimulated, compound 50 μM): 100% | inhibition at 10 µM (IL-1α; [2]): 67% | inhibition at 50 µM (IL-1α; [3]): 89% | inhibition at 10 µM (IL-8; LPS stimulated, compound 10 μM): 43% | inhibition at 50 µM (IL-8; LPS stimulated, compound 50 μM): 100% | inhibition at 10 µM (IL-8; PMA stimulated, compound 10 μM): 23% | inhibition at 50 µM (IL-8; PMA stimulated, compound 50 μM): 100% | inhibition at 10 µM (IL-8; [2]): 41% | inhibition at 50 µM (IL-8; [3]): 71% | inhibition at 10 µM (IL-6; LPS stimulated, compound 10 μM): 59% | inhibition at 50 µM (IL-6; LPS stimulated, compound 50 μM): 100% | inhibition at 10 µM (IL-6; [2]): 6% | inhibition at 50 µM (IL-6; [3]): 100% | inhibition at 10 µM ([1]; PHA stimulated, compound 10 μM): 0% | inhibition at 50 µM ([1]; PHA stimulated, compound 50 μM): 100% | inhibition at 10 µM [1, 4]: 0% | inhibition at 50 µM [1, 5]: 100% | inhibition at 10 µM (TNF-α; LPS stimulated, compound 10 μM): 74% | inhibition at 50 µM (TNF-α; LPS stimulated, compound 50 μM): 100% | inhibition at 10 µM (TNF-α; PMA stimulated, compound 10 μM): 73% | inhibition at 50 µM (TNF-α; PMA stimulated, compound 50 μM): 100% | inhibition at 10 µM (TNF-α; [2]): 36% | inhibition at 50 µM (TNF-α; [3]): 98%
